Assay results as given in ChEMBL document CHEMBL1201862, “PubChem BioAssay data set” (2004).
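Five compound concentrations were applied to cells in 96-well plates for 48 hours; endpoints were derived by simple linear interpolation of the resulting dose-response curve. Here, GI50 denotes the concentration required for 50% inhibition of growth.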 Active and inactive are the calls of the source. No stated cut-off is given here; in the data, active = GI50 up to about 1.1 µM and inactive = higher.

What was measured:
Test in all cases: growth of human tumour cells (NCI), 48 h
Malme-3M = tested on: Malme-3M
COLO 205 = tested on: COLO 205
SK-MEL-5 = tested on: SK-MEL-5
SW-620 = tested on: SW-620
SK-MEL-2 = tested on: SK-MEL-2
SK-OV-3 = tested on: SK-OV-3
HCC 2998 = tested on: HCC 2998
SR = tested on: SR
TK-10 = tested on: TK-10
SN12C = tested on: SN12C
SF-268 = tested on: SF-268
CCRF-CEM = tested on: CCRF-CEM
SNB-75 = tested on: SNB-75
IGROV-1 = tested on: IGROV-1
RPMI-8226 = tested on: RPMI-8226
LOX IMVI = tested on: LOX IMVI
RXF 393 = tested on: RXF 393
UACC-257 = tested on: UACC-257
NCI/ADR-RES = tested on: NCI/ADR-RES
MDA-N = tested on: MDA-N

| SMILES | GI50 (Malme-3M) | GI50 (COLO 205) | GI50 (SK-MEL-5) | GI50 (SW-620) | GI50 (SK-MEL-2) | GI50 (SK-OV-3) | GI50 (HCC 2998) | GI50 (SR) | GI50 (TK-10) | GI50 (SN12C) | GI50 (SF-268) | GI50 (CCRF-CEM) | GI50 (SNB-75) | GI50 (IGROV-1) | GI50 (RPMI-8226) | GI50 (LOX IMVI) | GI50 (RXF 393) | GI50 (UACC-257) | GI50 (NCI/ADR-RES) | GI50 (MDA-N) |
| --- | --- | --- | --- | --- | --- | --- | --- | --- | --- | --- | --- | --- | --- | --- | --- | --- | --- | --- | --- | --- |
| CCCCOCc1cc(CN2CCN(C)CC2)c(O)c2ncccc12 | 21.3 µM (inactive) | 29.6 µM (inactive) | 4.02 µM (inactive) | 9.89 µM (inactive) | 25.3 µM (inactive) | 67.6 µM (inactive) | 24.3 µM (inactive) | 3.49 µM (inactive) | > 100 µM (inactive) | 21.9 µM (inactive) | 16.2 µM (inactive) | 3.07 µM (inactive) | 52.7 µM (inactive) | 29.3 µM (inactive) | 3.29 µM (inactive) | 22.1 µM (inactive) | 36.6 µM (inactive) | 21.1 µM (inactive) |  |  |
| COC(=O)c1c(O)ccc2c1c1c(n2C)C(=O)c2ccccc2C1=O | 42.5 µM (inactive) | 65.9 µM (inactive) | 30.9 µM (inactive) | 59.4 µM (inactive) | 25.4 µM (inactive) | 6.19 µM (inactive) | 11.3 µM (inactive) | 16.2 µM (inactive) | 26.7 µM (inactive) | 11.9 µM (inactive) | 13.8 µM (inactive) | 6.37 µM (inactive) | 2.48 µM (inactive) | 4 µM (inactive) | 4.78 µM (inactive) | 16.7 µM (inactive) | 15.4 µM (inactive) | > 100 µM (inactive) | 43.7 µM (inactive) |  |
| N=C(N)NCCN1CCCCCc2ccccc21 | > 10 µM (inactive) | > 10 µM (inactive) | > 10 µM (inactive) | > 10 µM (inactive) | > 10 µM (inactive) | > 10 µM (inactive) | > 10 µM (inactive) | > 10 µM (inactive) | > 10 µM (inactive) | > 10 µM (inactive) | 3.27 µM (inactive) | > 10 µM (inactive) | 3.48 µM (inactive) | > 10 µM (inactive) | > 10 µM (inactive) | > 10 µM (inactive) | > 10 µM (inactive) | > 10 µM (inactive) | > 10 µM (inactive) |  |
| COc1ccc2nc3ccc(OC)cc3c(SCc3ccccc3)c2c1 | > 100 µM (inactive) | > 86.3 µM (inactive) | > 100 µM (inactive) | > 74.3 µM (inactive) | > 100 µM (inactive) | > 100 µM (inactive) | 38.8 µM (inactive) | > 32.9 µM (inactive) | > 80.7 µM (inactive) | > 100 µM (inactive) | > 100 µM (inactive) | > 52.7 µM (inactive) | > 88.7 µM (inactive) | > 63.1 µM (inactive) | 48.8 µM (inactive) | > 83.4 µM (inactive) | > 100 µM (inactive) | > 92.5 µM (inactive) | > 100 µM (inactive) |  |
| COc1ccc(C(=O)NCCN(C)C)c2nc3ccccc3nc12 | 2.3 µM (inactive) | 3.46 µM (inactive) | 4.81 µM (inactive) | 2.7 µM (inactive) | 4.01 µM (inactive) | 19.5 µM (inactive) | 5.15 µM (inactive) | 0.708 µM (active) | 5.18 µM (inactive) | 3.62 µM (inactive) |  |  | 8.11 µM (inactive) | 3.14 µM (inactive) | 3.21 µM (inactive) | 2.01 µM (inactive) | 11.4 µM (inactive) | 3.56 µM (inactive) |  |  |
| O=C1C(=c2cc3c(c4ccccc24)=NC24CCCCC2C(c2ccccc2)C=C(c2ccccc2)N34)C(=O)c2ccccc21 (stereo unspecified) | 45.1 µM (inactive) | 33 µM (inactive) | 26.4 µM (inactive) | 37.7 µM (inactive) | 42.5 µM (inactive) | > 100 µM (inactive) |  | 26.4 µM (inactive) | > 100 µM (inactive) | > 100 µM (inactive) | 30.3 µM (inactive) | 15.6 µM (inactive) | 54 µM (inactive) | 3.08 µM (inactive) | 11.4 µM (inactive) | 34.2 µM (inactive) | 18.5 µM (inactive) | > 100 µM (inactive) |  | 36.9 µM (inactive) |
| Nc1ncnc2c1ncn2C1OC(CSCC(F)(F)F)C(O)C1O (stereo unspecified) | > 100 µM (inactive) | > 100 µM (inactive) | > 100 µM (inactive) | > 100 µM (inactive) | > 100 µM (inactive) | > 100 µM (inactive) | > 100 µM (inactive) | > 100 µM (inactive) | > 100 µM (inactive) | > 100 µM (inactive) | > 100 µM (inactive) |  | > 100 µM (inactive) | > 100 µM (inactive) | > 100 µM (inactive) | > 100 µM (inactive) | > 100 µM (inactive) | > 100 µM (inactive) |  |  |
| Cc1cn([C@H]2CN(O)C[C@@H](CO)O2)c(=O)[nH]c1=O |  | > 100 µM (inactive) | > 100 µM (inactive) | > 100 µM (inactive) | > 100 µM (inactive) | > 100 µM (inactive) | > 100 µM (inactive) |  | > 100 µM (inactive) | > 100 µM (inactive) | > 100 µM (inactive) |  | > 100 µM (inactive) | > 100 µM (inactive) | > 100 µM (inactive) |  | > 100 µM (inactive) | > 100 µM (inactive) |  | > 100 µM (inactive) |
